In patent publication EP4745135A1 (Gluetacs Therapeutics (Shanghai) Co., Ltd., priority 2023, dated 2025):
pIC50: −log10 of the molar value.

How the values were obtained:
[1] = tested on: Human myeloid monocytic leukemia cell (MV-4-11); test: Tumor cell proliferation inhibition (CellTiter-Meiluncell luminescent cell viability assay); conditions: MV4-11, 96 h; for inhibition at 0.01 µM: read-out: Inhibition Rate at 10 nM (%); for inhibition at 0.5 µM: read-out: Inhibition Rate at 500 nM (%)
[2] = molecular target: T1, human Cereblon WT GST-tagged protein (Homo sapiens, UniProt Q96SW2); test: CRBN-binding affinity, HTRF (CEREBLON BINDING kit); conditions: for inhibition at 0.5 µM: read-out: Inhibition Rate at 0.5 µM (%); for inhibition at 2 µM: read-out: Inhibition Rate at 2 µM (%)
T1 construct: purchased CISBIO 64BDCRBNPEH
T1 sequence (Q96SW2 whole entry): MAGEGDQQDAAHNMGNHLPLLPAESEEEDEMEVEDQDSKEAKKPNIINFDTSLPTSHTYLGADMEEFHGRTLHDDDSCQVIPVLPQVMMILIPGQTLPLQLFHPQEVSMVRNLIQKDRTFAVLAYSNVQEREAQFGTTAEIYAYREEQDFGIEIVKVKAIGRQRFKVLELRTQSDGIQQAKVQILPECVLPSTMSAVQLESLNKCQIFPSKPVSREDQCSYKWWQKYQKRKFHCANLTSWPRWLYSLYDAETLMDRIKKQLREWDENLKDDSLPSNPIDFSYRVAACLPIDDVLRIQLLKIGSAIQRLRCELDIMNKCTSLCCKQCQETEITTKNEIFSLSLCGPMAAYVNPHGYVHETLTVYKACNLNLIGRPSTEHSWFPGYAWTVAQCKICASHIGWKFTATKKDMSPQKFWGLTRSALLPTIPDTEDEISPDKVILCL

[3] = tested on: Human breast cancer cell (MCF-7); test: Tumor cell proliferation inhibition (CellTiter-Meiluncell luminescent cell viability assay); conditions: MCF7, 96 h, read-out: Inhibition Rate at 500 nM (%)
[4] = tested on: Human multiple myeloma cell (MM.1S); test: as above; conditions: Homo sapiens, MM1.S, 96 h; for inhibition at 0.01 µM: read-out: Inhibition Rate at 10 nM (%); for inhibition at 0.5 µM: read-out: Inhibition Rate at 500 nM (%)
Procedure: The tumor cells used herein were cultured in a cell culture medium listed in table 2 at 37°C in an incubator with 5% CO2. Prior to experimentation, all cell lines used were correctly identified by STR profiling, and tested negative for mycoplasma contamination using a mycoplasma detection kit through routine screenings.
The IC50 values of the compounds of the present disclosure (including the compounds in Table 1 and Examples) were determined using the CellTiter-Meiluncell Luminescent Cell Viability Assay Kit from Dalian Meilun Biotech Co., Ltd. The detailed procedure is as follows: Tumor cells were seeded in 96-well cell culture plates at the densities specified in Table 3. On the following day, the test compounds of the present disclosure were subjected to serial dilution. The dilution can be performed according to one of the following two methods: • (1) The first dilution method: The test compounds of the present disclosure (including the compounds in Table 1 and Examples) were subjected to 5-fold serial dilutions starting from a highest concentration of 2000 µM, resulting in a total of 9 concentrations from high to low (2000, 400, 80, 16, 3.2, 0.64, 0.128, 0.0256, 0.00512 µM). Subsequently, 0.5 µL of the test compound dilution was transferred into the 96-well plate containing the cells, with each well containing 100 µL of cell culture medium. […] Into the 96-well plate, the diluted test compounds and corresponding detection reagents were added, resulting in final test compound concentrations of 500 nM and 10 nM, respectively. The experimental procedure is described below using the diluted 2 µM test compound as an example.
0.5 µL of the aforementioned diluted compound of the present disclosure (including the compounds in Table 1 and Examples) was added to the seeded cells in 100 µL of medium, yielding a final test compound concentration of 10 nM. After the cells were treated with the compounds of the present disclosure for a specified period, the cell viability assay reagent was added to the culture medium according to the kit's instructions to determine cell viability. […] All controls were treated using the same procedure as the compounds of the present disclosure. The growth inhibition curves for the compounds of the present disclosure were plotted using Prism GraphPad software, and the IC50 values were calculated therefrom.

[5] = molecular target: T2, WEE1 (Homo sapiens, UniProt P30291+Q96SW2); test: Western blot, degradation of substrate protein in hPBMCs; format: cell-based
T2 construct: effects of the compounds of the present disclosure on the expression of target proteins in cells; endogenous in cells; host or cells: human PBMCs (Milecell Biotechnologies)
T2 sequence (P30291 whole entry): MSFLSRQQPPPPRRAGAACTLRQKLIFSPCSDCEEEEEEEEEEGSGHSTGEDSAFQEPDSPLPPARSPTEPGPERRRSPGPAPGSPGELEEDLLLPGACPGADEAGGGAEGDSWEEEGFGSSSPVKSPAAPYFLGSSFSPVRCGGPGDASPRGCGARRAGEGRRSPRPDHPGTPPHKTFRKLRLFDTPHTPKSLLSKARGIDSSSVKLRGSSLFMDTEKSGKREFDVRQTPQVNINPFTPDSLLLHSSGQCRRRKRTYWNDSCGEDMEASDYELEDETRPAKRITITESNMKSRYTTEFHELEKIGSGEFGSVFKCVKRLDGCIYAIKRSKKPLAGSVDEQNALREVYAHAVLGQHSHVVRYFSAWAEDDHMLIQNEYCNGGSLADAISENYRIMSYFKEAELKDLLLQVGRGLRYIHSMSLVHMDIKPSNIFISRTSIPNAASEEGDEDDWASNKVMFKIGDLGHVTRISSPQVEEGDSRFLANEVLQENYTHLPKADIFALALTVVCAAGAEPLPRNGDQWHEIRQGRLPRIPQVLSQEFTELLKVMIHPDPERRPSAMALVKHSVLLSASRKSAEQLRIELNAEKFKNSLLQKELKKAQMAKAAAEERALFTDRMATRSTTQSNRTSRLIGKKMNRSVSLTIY
T2 sequence (Q96SW2 whole entry): as the sequence (Q96SW2 whole entry) above
T2 sequence (Q16531 whole entry partner): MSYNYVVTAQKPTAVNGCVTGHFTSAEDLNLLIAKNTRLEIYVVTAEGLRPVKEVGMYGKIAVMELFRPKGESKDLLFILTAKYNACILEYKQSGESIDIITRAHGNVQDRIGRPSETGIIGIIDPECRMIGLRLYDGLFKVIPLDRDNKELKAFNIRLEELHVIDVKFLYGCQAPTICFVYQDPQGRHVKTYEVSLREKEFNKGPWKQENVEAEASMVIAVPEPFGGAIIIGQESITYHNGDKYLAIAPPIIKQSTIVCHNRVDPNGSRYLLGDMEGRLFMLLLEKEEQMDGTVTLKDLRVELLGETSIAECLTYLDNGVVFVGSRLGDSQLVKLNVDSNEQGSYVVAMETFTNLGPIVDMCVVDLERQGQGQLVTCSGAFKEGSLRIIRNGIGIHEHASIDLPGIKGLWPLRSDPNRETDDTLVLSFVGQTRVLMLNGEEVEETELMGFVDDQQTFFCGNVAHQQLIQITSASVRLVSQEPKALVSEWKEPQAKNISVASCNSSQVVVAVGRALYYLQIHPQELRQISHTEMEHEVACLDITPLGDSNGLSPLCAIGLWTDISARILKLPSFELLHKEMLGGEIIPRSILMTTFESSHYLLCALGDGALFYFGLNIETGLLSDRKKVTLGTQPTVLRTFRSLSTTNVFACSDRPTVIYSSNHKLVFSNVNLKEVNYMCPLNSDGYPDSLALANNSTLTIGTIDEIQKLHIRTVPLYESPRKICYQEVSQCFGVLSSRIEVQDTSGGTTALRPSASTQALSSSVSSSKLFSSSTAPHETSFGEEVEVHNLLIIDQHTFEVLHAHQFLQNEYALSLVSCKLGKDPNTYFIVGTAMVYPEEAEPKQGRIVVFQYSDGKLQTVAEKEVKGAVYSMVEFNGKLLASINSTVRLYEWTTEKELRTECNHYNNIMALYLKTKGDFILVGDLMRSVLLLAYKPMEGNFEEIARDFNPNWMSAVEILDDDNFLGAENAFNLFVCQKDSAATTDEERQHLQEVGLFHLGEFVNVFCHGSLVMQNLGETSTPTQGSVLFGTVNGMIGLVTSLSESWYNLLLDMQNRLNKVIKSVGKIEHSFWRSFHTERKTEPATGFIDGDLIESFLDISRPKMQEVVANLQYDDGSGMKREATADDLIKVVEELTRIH

[6] = molecular target: T3, CK1α (Homo sapiens, UniProt P48729+Q96SW2); test: as above; format: cell-based
T3 construct: effects of the compounds of the present disclosure on the expression of target proteins in cells; endogenous in cells; host or cells: human PBMCs (Milecell Biotechnologies)
T3 sequence (P48729 whole entry): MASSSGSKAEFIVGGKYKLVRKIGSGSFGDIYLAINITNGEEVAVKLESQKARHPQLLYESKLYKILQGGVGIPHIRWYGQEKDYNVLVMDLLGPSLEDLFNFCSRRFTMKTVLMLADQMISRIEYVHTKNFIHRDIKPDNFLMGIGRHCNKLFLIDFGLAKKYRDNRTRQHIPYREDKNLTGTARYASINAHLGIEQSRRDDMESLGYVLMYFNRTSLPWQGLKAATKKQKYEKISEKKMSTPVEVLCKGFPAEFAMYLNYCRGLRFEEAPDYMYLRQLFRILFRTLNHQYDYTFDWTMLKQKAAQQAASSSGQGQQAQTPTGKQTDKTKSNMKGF
T3 sequence (Q96SW2 whole entry): as the sequence (Q96SW2 whole entry) above
T3 sequence (Q16531 whole entry partner): as the sequence (Q16531 whole entry partner) above

[7] = molecular target: T4, IKZF2 (Homo sapiens, UniProt Q96SW2+Q9UKS7); test: as above; format: cell-based
T4 construct: effects of the compounds of the present disclosure on the expression of target proteins in cells; endogenous in cells; host or cells: human PBMCs (Milecell Biotechnologies)
T4 sequence (Q9UKS7 whole entry): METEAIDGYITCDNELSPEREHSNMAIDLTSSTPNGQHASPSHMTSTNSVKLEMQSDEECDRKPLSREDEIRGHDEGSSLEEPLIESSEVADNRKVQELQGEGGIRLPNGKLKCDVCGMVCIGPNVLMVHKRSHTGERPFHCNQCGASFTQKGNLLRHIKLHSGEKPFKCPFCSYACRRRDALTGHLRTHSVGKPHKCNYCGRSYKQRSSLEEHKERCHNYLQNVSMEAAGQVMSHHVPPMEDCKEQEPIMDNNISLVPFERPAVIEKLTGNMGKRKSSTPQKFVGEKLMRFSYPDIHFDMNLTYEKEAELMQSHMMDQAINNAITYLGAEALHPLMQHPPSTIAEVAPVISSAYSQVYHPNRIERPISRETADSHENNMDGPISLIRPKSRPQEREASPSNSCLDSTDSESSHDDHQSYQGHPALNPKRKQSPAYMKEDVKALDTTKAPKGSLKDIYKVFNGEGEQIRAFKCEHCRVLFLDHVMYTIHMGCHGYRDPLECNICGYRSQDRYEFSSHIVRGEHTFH
T4 sequence (Q96SW2 whole entry): as the sequence (Q96SW2 whole entry) above
T4 sequence (Q16531 whole entry partner): as the sequence (Q16531 whole entry partner) above

[8] = molecular target: T5, IKZF3 (Homo sapiens, UniProt Q96SW2+Q9UKT9); test: as above; format: cell-based
T5 construct: effects of the compounds of the present disclosure on the expression of target proteins in cells; endogenous in cells; host or cells: human PBMCs (Milecell Biotechnologies)
T5 sequence (Q9UKT9 whole entry): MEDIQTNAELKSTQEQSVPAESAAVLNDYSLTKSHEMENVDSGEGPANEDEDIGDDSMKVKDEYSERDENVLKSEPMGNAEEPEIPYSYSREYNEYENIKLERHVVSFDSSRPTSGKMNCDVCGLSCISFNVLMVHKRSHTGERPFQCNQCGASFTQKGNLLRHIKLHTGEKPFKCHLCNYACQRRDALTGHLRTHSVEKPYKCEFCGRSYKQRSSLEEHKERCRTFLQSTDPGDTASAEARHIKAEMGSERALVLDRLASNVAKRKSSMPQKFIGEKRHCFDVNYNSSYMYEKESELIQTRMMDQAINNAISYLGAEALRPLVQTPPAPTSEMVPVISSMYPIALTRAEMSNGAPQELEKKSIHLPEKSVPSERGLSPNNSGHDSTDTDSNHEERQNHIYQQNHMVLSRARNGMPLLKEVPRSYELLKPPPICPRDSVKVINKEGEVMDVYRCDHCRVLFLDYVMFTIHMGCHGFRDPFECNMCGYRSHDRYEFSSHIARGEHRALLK
T5 sequence (Q96SW2 whole entry): as the sequence (Q96SW2 whole entry) above
T5 sequence (Q16531 whole entry partner): as the sequence (Q16531 whole entry partner) above

[9] = molecular target: T6, IKZF1 (Homo sapiens, UniProt Q13422+Q96SW2); test: as above; format: cell-based
T6 construct: effects of the compounds of the present disclosure on the expression of target proteins in cells; endogenous in cells; host or cells: human PBMCs (Milecell Biotechnologies)
T6 sequence (Q13422 whole entry): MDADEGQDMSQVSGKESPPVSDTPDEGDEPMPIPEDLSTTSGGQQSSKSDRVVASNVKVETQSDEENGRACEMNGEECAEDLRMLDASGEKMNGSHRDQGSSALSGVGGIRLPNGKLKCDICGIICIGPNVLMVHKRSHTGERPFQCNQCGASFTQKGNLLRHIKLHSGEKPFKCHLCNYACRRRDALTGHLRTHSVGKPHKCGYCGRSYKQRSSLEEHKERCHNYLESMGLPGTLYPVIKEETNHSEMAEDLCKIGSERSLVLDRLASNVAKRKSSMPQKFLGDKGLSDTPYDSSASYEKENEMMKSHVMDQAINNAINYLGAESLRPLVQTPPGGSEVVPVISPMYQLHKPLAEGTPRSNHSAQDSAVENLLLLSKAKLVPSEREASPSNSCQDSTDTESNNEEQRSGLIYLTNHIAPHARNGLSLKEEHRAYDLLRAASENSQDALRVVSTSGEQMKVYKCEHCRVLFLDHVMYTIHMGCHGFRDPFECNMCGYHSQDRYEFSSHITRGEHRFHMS
T6 sequence (Q96SW2 whole entry): as the sequence (Q96SW2 whole entry) above
T6 sequence (Q16531 whole entry partner): as the sequence (Q16531 whole entry partner) above

[10] = tested on: Human multiple myeloma peripheral blood B lymphocyte cell (RPMI-8226); test: Tumor cell proliferation inhibition (CellTiter-Meiluncell luminescent cell viability assay); conditions: RPMI-8226, 96 h; for inhibition at 0.01 µM: read-out: Inhibition Rate at 10 nM (%); for inhibition at 0.5 µM: read-out: Inhibition Rate at 500 nM (%)
[11] = tested on: GSPT1; test: Western blot, degradation of substrate protein in hPBMCs; format: cell-based, Human
[12] = tested on: Human acute T lymphocytic leukemia cell (Molt4); test: Tumor cell proliferation inhibition (CellTiter-Meiluncell luminescent cell viability assay); conditions: MOLT-4, 96 h; for inhibition at 0.01 µM: read-out: Inhibition Rate at 10 nM (%); for inhibition at 0.5 µM: read-out: Inhibition Rate at 500 nM (%)
[13] = Western blot, 24 hours of compound treatment, compounds tested at 50 nM and 500 nM (concentration for the table not stated)
[14] = 24 hours treatment, compounds at 50 nM and 500 nM (concentration behind the class not stated)

SMILES | inhibition at 0.01 µM [1] | inhibition at 0.5 µM [1] | inhibition at 0.5 µM [2] | inhibition at 2 µM [2] | inhibition at 0.01 µM [4] | inhibition at 0.5 µM [4] | Wee1 substrate protein remaining % [5, 13] | CK1α substrate protein remaining % [6, 13] | IKZF2 substrate protein remaining % [7, 13] | IKZF3 substrate protein remaining % [8, 13] | IKZF 1 substrate protein remaining % [9, 13] | inhibition at 0.01 µM [10] | inhibition at 0.5 µM [10] | GSPT1 substrate protein remaining % [11, 13] | inhibition at 0.01 µM [12] | inhibition at 0.5 µM [12] | also measured
O=C1CCC(N2Cc3cc(CN4CC=C(c5ncccc5F)CC4)ccc3C2=S)C(=O)N1 (stereo not shown) [GT-08491, 3-(5-((3-fluoro-3',6'-dihydro-[2,4'-bipyridin]-1'(2'H)-yl)methyl)-1-thioxoisoindolin-2-yl)piperidine-2,6-dione] | 18 to 25% | 80 to 100% | 80 to 100% | 80 to 100% | 10 to 20% | 80 to 100% | A (0% ≤ substrate protein remaining % ≤ 80%) | B (80%< substrate protein remaining %≤ 100%) | B (80%< substrate protein remaining %≤ 100%) | B (80%< substrate protein remaining %≤ 100%) | B (80%< substrate protein remaining %≤ 100%) | 10 to 20% | 70 to 80% | A (0% ≤ substrate protein remaining % ≤ 80%) | 20 to 30% | 80 to 100% | inhibition at 0.5 µM [3]: 40 to 50%
O=C1CCC(N2Cc3cc(CN4CC=C(c5cncc(Cl)c5Cl)CC4)ccc3C2=S)C(=O)N1 (stereo not shown) [GT-08489, 3-(5-((4,5-dichloro-3',6'-dihydro-[3,4'-bipyridin]-1'(2'H)-yl)methyl)-1-thioxoisoindolin-2-yl)piperidine-2,6-dione] | 30 to 40% | 80 to 100% | 60 to 80% | 80 to 100% | 10 to 20% | 80 to 100% | A (0% ≤ substrate protein remaining % ≤ 80%) | B (80%< substrate protein remaining %≤ 100%) | A (0% ≤ substrate protein remaining % ≤ 80%) | A (0% ≤ substrate protein remaining % ≤ 80%) | B (80%< substrate protein remaining %≤ 100%) | 0 to 5% | 70 to 80% | A (0% ≤ substrate protein remaining % ≤ 80%) | 0 to 5% | 80 to 100% | inhibition at 0.5 µM [3]: 50 to 60%
O=C1CCC(N2Cc3cc(CN4CCN(c5n[nH]c6cc(F)ccc56)CC4)ccc3C2=S)C(=O)N1 (stereo not shown) [GT-09260, 3-(5-((4-(6-fluoro-1H-indazol-3-yl)piperazin-1-yl)methyl)-1-thioxoisoindolin-2-yl)piperidine-2,6-dione] | 18 to 25% | 80 to 100% | 60 to 80% | 80 to 100% | 10 to 20% | 80 to 100% | – | – | – | – | – | 5 to 10% | 40 to 50% | – | 20 to 30% | 80 to 100% | Wee1 substrate protein remaining % [5, 14]: B (80%< substrate protein remaining %≤ 100%); CK1α substrate protein remaining % [6, 14]: B (80%< substrate protein remaining %≤ 100%); IKZF2 substrate protein remaining % [7, 14]: B (80%< substrate protein remaining %≤ 100%); IKZF3 substrate protein remaining % [8, 14]: B (80%< substrate protein remaining %≤ 100%); IKZF 1 substrate protein remaining % [9, 14]: B (80%< substrate protein remaining %≤ 100%); GSPT1 substrate protein remaining % [11, 14]: A (0% ≤ substrate protein remaining % ≤ 80%)
O=C1CCC(N2Cc3cc(CN4CCN(c5cccc(Br)c5)CC4)ccc3C2=S)C(=O)N1 (stereo not shown) [GT-08238, 3-(5-((4-(3-bromophenyl)piperazin-1-yl)methyl)-1-thioxoisoindolin-2-yl)piperidine-2,6-dione] | 5 to 10% | 80 to 100% | 53 to 60% | 80 to 100% | 70 to 80% | 70 to 80% | B (80%< substrate protein remaining %≤ 100%) | B (80%< substrate protein remaining %≤ 100%) | B (80%< substrate protein remaining %≤ 100%) | B (80%< substrate protein remaining %≤ 100%) | B (80%< substrate protein remaining %≤ 100%) | 20 to 30% | 50 to 60% | A (0% ≤ substrate protein remaining % ≤ 80%) | 30 to 40% | 80 to 100% | –
Cc1cccc(N2CCN(Cc3ccc4c(c3)CN(C3CCC(=O)NC3=O)C4=S)CC2)c1 (stereo not shown) [GT-08602, 3-(1-thioxo-5-((4-(m-tolyl)piperazin-1-yl)methyl)isoindolin-2-yl)piperidine-2,6-dione] | 18 to 25% | 80 to 100% | 40 to 53% | 80 to 100% | 10 to 20% | 80 to 100% | A (0% ≤ substrate protein remaining % ≤ 80%) | B (80%< substrate protein remaining %≤ 100%) | B (80%< substrate protein remaining %≤ 100%) | B (80%< substrate protein remaining %≤ 100%) | B (80%< substrate protein remaining %≤ 100%) | 10 to 20% | 70 to 80% | A (0% ≤ substrate protein remaining % ≤ 80%) | -5 to 0% | 80 to 100% | –
O=C1CCC(N2Cc3cc(CN4CC=C(c5ccnc(Cl)c5Cl)CC4)ccc3C2=S)C(=O)N1 (stereo not shown) [GT-08482, 3-(5-((2',3'-dichloro-3,6-dihydro-[4,4'-bipyridin]-1(2H)-yl)methyl)-1-thioxoisoindolin-2-yl)piperidine-2,6-dione] | 40 to 60% | 80 to 100% | 60 to 80% | 80 to 100% | 50 to 60% | 80 to 100% | A (0% ≤ substrate protein remaining % ≤ 80%) | B (80%< substrate protein remaining %≤ 100%) | B (80%< substrate protein remaining %≤ 100%) | B (80%< substrate protein remaining %≤ 100%) | B (80%< substrate protein remaining %≤ 100%) | 10 to 20% | 60 to 70% | A (0% ≤ substrate protein remaining % ≤ 80%) | -5 to 0% | 80 to 100% | –
N#Cc1ccc(N2CCN(Cc3ccc(COc4cccc5c4CN([C@H]4CCC(=O)NC4=O)C5=S)cc3)CC2)c(F)c1 [GT-05957, (S)-4-(4-(4-(((2-(2,6-dioxopiperidin-3-yl)-1-thioxoisoindolin-4-yl)oxy)methyl)benzyl)piperazin-1-yl)-3-fluorobenzonitrile] | 25 to 30% | 40 to 60% | – | – | 80 to 100% | 80 to 100% | – | – | – | – | – | 50 to 60% | 60 to 70% | – | – | – | pIC50 ([2]; CRBN binding, HTRF, 3 hours at room temperature, read-out: HTRF IC50): 6.30 to 7.00; Wee1 substrate protein remaining % [5, 14]: B (80%< substrate protein remaining %≤ 100%); CK1α substrate protein remaining % [6, 14]: B (80%< substrate protein remaining %≤ 100%); IKZF2 substrate protein remaining % [7, 14]: A (0% ≤ substrate protein remaining % ≤ 80%); IKZF3 substrate protein remaining % [8, 14]: A (0% ≤ substrate protein remaining % ≤ 80%); IKZF 1 substrate protein remaining % [9, 14]: A (0% ≤ substrate protein remaining % ≤ 80%); GSPT1 substrate protein remaining % [11, 14]: A (0% ≤ substrate protein remaining % ≤ 80%)
O=C1CCC(N2Cc3cc(CN4CCC(c5cccc(Br)c5)CC4)ccc3C2=S)C(=O)N1 (stereo not shown) [GT-08617, 3-(5-((4-(3-bromophenyl)piperidin-1-yl)methyl)-1-thioxoisoindolin-2-yl)piperidine-2,6-dione] | 5 to 10% | 80 to 100% | 40 to 53% | 80 to 100% | 30 to 40% | 80 to 100% | B (80%< substrate protein remaining %≤ 100%) | B (80%< substrate protein remaining %≤ 100%) | B (80%< substrate protein remaining %≤ 100%) | B (80%< substrate protein remaining %≤ 100%) | B (80%< substrate protein remaining %≤ 100%) | 10 to 20% | 50 to 60% | A (0% ≤ substrate protein remaining % ≤ 80%) | 20 to 30% | 80 to 100% | –
